The supplement of paper PMC5908809

Assays:
[1] = system: normal NK cells expanded with K562-aAPC; assay: percent inhibition of viability; higher = more inhibition; conditions: 72 h, IL-2 2.5 ng/mL
Description: (§1)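 Drug sensitivity and resistance testing on K562-aAPC-expanded normal NK cells: 5 concentrations (10-fold steps over a 10,000-fold range), 72 h at 37 °C, viability by CellTiter-Glo normalised to DMSO and benzethonium chloride controls; DSS from the fitted curve.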

NKL (IL-2 2.5 ng/mL) [2] = assay: drug sensitivity score (DSS) (DSS units); higher = more sensitive; extreme values may be limits of the assay; conditions: 72 h
NK-YS (IL-2 2.5 ng/mL) [3] = assay: as above; conditions: 72 h
[4] = system: normal primary NK cells, pool 1 (3 donors) (IL-2 2.5 ng/mL); assay: as above; conditions: 72 h
DERL-7 (IL-2 2.5 ng/mL) [5] = assay: as above; conditions: 72 h
[6] = system: normal primary NK cells, pool 2 (3 donors) (IL-2 2.5 ng/mL); assay: as above; conditions: 72 h
[7] = system: normal primary NK cells, pool 3 (3 donors) (IL-2 2.5 ng/mL); assay: as above; conditions: 72 h
[8] = system: normal primary NK cells, pool 1 (3 donors), resting (IL-2 0 ng/mL); assay: as above; conditions: 72 h
KAI3 (IL-2 2.5 ng/mL) [9] = assay: as above; conditions: 72 h
YT (IL-2 2.5 ng/mL) [10] = assay: as above; conditions: 72 h
SNK-6 (IL-2 2.5 ng/mL) [11] = assay: as above; conditions: 72 h
KHYG-1 (IL-2 2.5 ng/mL) [12] = assay: as above; conditions: 72 h
NK-92 (IL-2 2.5 ng/mL) [13] = assay: as above; conditions: 72 h
IMC-1 (IL-2 20 ng/mL) [14] = assay: as above; conditions: 72 h
NKL (IL-2 2.5 ng/mL) [15] = assay: percent inhibition of viability; higher = more inhibition; conditions: 72 h
NK-YS (IL-2 2.5 ng/mL) [16] = assay: as above; conditions: 72 h
[17] = system: normal primary NK cells, pool 1 (3 donors) (IL-2 2.5 ng/mL); assay: as above; conditions: 72 h
DERL-7 (IL-2 2.5 ng/mL) [18] = assay: as above; conditions: 72 h
[19] = system: normal primary NK cells, pool 2 (3 donors) (IL-2 2.5 ng/mL); assay: as above; conditions: 72 h
[20] = system: normal primary NK cells, pool 3 (3 donors) (IL-2 2.5 ng/mL); assay: as above; conditions: 72 h
[21] = system: normal primary NK cells, pool 1 (3 donors), resting (IL-2 0 ng/mL); assay: as above; conditions: 72 h
KAI3 (IL-2 2.5 ng/mL) [22] = assay: as above; conditions: 72 h
YT (IL-2 2.5 ng/mL) [23] = assay: as above; conditions: 72 h
SNK-6 (IL-2 2.5 ng/mL) [24] = assay: as above; conditions: 72 h
KHYG-1 (IL-2 2.5 ng/mL) [25] = assay: as above; conditions: 72 h
NK-92 (IL-2 2.5 ng/mL) [26] = assay: as above; conditions: 72 h
IMC-1 (IL-2 20 ng/mL) [27] = assay: as above; conditions: 72 h
[28] = system: normal NK cells expanded with K562-aAPC; assay: drug sensitivity score (DSS) (DSS units); higher = more sensitive; extreme values may be limits of the assay; conditions: 72 h; IL-2 2.5 ng/mL
Description: as §1

O=C(/C=C/c1cccc(S(=O)(=O)Nc2ccccc2)c1)NO [Belinostat] (max concentration tested 10000 nM)
percent inhibition of viability [%]
Conditions | 1 nM | 10 nM | 100 nM | 1000 nM | 10000 nM
DERL-7 (IL-2 2.5 ng/mL) [18] | -0.73 | 5.09 | 23.1 | 100 | 101
IMC-1 (IL-2 20 ng/mL) [27] | 2.36 | -0.13 | 20.2 | 99.6 | 101
KAI3 (IL-2 2.5 ng/mL) [22] | 7.26 | 14.3 | 51.9 | 94.6 | 109
KHYG-1 (IL-2 2.5 ng/mL) [25] | -0.75 | -0.46 | 35 | 108 | 110
NK-92 (IL-2 2.5 ng/mL) [26] | 5.07 | 14.1 | 52.2 | 107 | 106
NK-YS (IL-2 2.5 ng/mL) [16] | -1.97 | -1.76 | 21 | 97.5 | 109
NKL (IL-2 2.5 ng/mL) [15] | 5.5 | 10.4 | 37.5 | 87.9 | 108
SNK-6 (IL-2 2.5 ng/mL) [24] | -0.17 | -5.01 | 28.3 | 97.2 | 101
YT (IL-2 2.5 ng/mL) [23] | 4.17 | 3.96 | 11.8 | 105 | 109
[1] | 0.58 | 6.04 | 16.8 | 99.6 | 101
[17] | 3.19 | 9.82 | 43.7 | 96.4 | 98.7
[19] | -8.09 | 0.56 | 31 | 93.9 | 95.6
[20] | -2.35 | -1.35 | 15.5 | 96.3 | 98.3
[21] | -4.94 | 0.46 | 53.2 | 87.1 | 91.7

Conditions | drug sensitivity score
DERL-7 (IL-2 2.5 ng/mL) [5] | 21.6
IMC-1 (IL-2 20 ng/mL) [14] | 21.2
KAI3 (IL-2 2.5 ng/mL) [9] | 24.1
KHYG-1 (IL-2 2.5 ng/mL) [12] | 22.9
NK-92 (IL-2 2.5 ng/mL) [13] | 24.5
NK-YS (IL-2 2.5 ng/mL) [3] | 20.9
NKL (IL-2 2.5 ng/mL) [2] | 20.9
SNK-6 (IL-2 2.5 ng/mL) [11] | 21.7
YT (IL-2 2.5 ng/mL) [10] | 20.1
[4] | 22.5
[6] | 21.2
[7] | 20.1
[8] | 22.9
[28] | 20.8

Cn1cnc2c(F)c(Nc3ccc(Br)cc3F)c(C(=O)NOCCO)cc21 [Binimetinib] (max concentration tested 1000 nM)
percent inhibition of viability [%]
Conditions | 0.1 nM | 1 nM | 10 nM | 100 nM | 1000 nM
DERL-7 (IL-2 2.5 ng/mL) [18] | 1.19 | 7.3 | 10.5 | 16.3 | 33.7
IMC-1 (IL-2 20 ng/mL) [27] | -6 | -0.56 | -0.39 | 4.96 | 6.74
KAI3 (IL-2 2.5 ng/mL) [22] | -1.37 | 4.03 | 7.85 | 24.3 | 29.6
KHYG-1 (IL-2 2.5 ng/mL) [25] | -8.34 | -1.29 | 0.25 | 24.1 | 42.7
NK-92 (IL-2 2.5 ng/mL) [26] | -10.1 | -5.18 | -13.1 | 0.36 | -1.28
NK-YS (IL-2 2.5 ng/mL) [16] | -5.25 | -2.09 | -0.43 | 5.51 | 15.3
NKL (IL-2 2.5 ng/mL) [15] | -7.91 | -8.09 | 19.3 | 43.6 | 53.2
SNK-6 (IL-2 2.5 ng/mL) [24] | -19.8 | -4.3 | -10.5 | -10.4 | -8.36
YT (IL-2 2.5 ng/mL) [23] | -6.43 | -3.81 | -0.11 | 2.57 | 13.4
[1] | 1.57 | -5.49 | -0.07 | 6.65 | 16.2
[17] | -6.5 | 12.6 | 14.8 | 18.1 | 22.7
[19] | -7.84 | -6.09 | 8.89 | -1.5 | 11
[20] | -5.24 | 2.75 | -0.18 | 2.58 | 2.52
[21] | -4.5 | 21.4 | 12.5 | 9.21 | 17.1

Conditions | drug sensitivity score
DERL-7 (IL-2 2.5 ng/mL) [5] | 3.71
IMC-1 (IL-2 20 ng/mL) [14] | 0
KAI3 (IL-2 2.5 ng/mL) [9] | 4.5
KHYG-1 (IL-2 2.5 ng/mL) [12] | 5.14
NK-92 (IL-2 2.5 ng/mL) [13] | 0
NK-YS (IL-2 2.5 ng/mL) [3] | 0.72
NKL (IL-2 2.5 ng/mL) [2] | 10.4
SNK-6 (IL-2 2.5 ng/mL) [11] | 0
YT (IL-2 2.5 ng/mL) [10] | 0.31
[4] | 4.75
[6] | 0
[7] | 0
[8] | 1.99
[28] | 0.91

CC[C@H](NC(=O)[C@H](C)NC)C(=O)N1C[C@@H](O)C[C@H]1Cc1c(-c2[nH]c3cc(F)ccc3c2C[C@@H]2C[C@H](O)CN2C(=O)[C@H](CC)NC(=O)[C@H](C)NC)[nH]c2cc(F)ccc12 [Birinapant] (max concentration tested 1000 nM)
percent inhibition of viability [%]
Conditions | 0.1 nM | 1 nM | 10 nM | 100 nM | 1000 nM
DERL-7 (IL-2 2.5 ng/mL) [18] | 7.8 | 5.54 | 23.2 | 43.1 | 46.6
IMC-1 (IL-2 20 ng/mL) [27] | -3.47 | 1.41 | -0.22 | 1.34 | 45.6
KAI3 (IL-2 2.5 ng/mL) [22] | 1.71 | -5.41 | -0.72 | 9.21 | 15.7
KHYG-1 (IL-2 2.5 ng/mL) [25] | -2.97 | -5.19 | -7.39 | -1.77 | 17.7
NK-92 (IL-2 2.5 ng/mL) [26] | -4.58 | -12.3 | 5.84 | 11.1 | 31
NK-YS (IL-2 2.5 ng/mL) [16] | -2.88 | -9.14 | -8.38 | -5.45 | -8.45
NKL (IL-2 2.5 ng/mL) [15] | 5.63 | 0.8 | 3.21 | 19.2 | 32.2
SNK-6 (IL-2 2.5 ng/mL) [24] | -1.62 | -1.64 | -7.31 | -10.8 | -16.1
YT (IL-2 2.5 ng/mL) [23] | 1.52 | -1.94 | 2.55 | 4.56 | 2.39
[1] | -2.92 | -0.28 | 2.8 | 10.2 | 38.9
[17] | -9.47 | -11.8 | 3.46 | 0.49 | 69.2
[19] | -6.05 | -7.14 | -11.2 | 2.7 | 53.1
[20] | -4.73 | -7.57 | -8.06 | -3.61 | 38.2
[21] | -23.1 | -28.9 | -10.4 | -2.86 | 73.8

Conditions | drug sensitivity score
DERL-7 (IL-2 2.5 ng/mL) [5] | 10.5
IMC-1 (IL-2 20 ng/mL) [14] | 2.52
KAI3 (IL-2 2.5 ng/mL) [9] | 1
KHYG-1 (IL-2 2.5 ng/mL) [12] | 0.34
NK-92 (IL-2 2.5 ng/mL) [13] | 2.35
NK-YS (IL-2 2.5 ng/mL) [3] | 0
NKL (IL-2 2.5 ng/mL) [2] | 3.5
SNK-6 (IL-2 2.5 ng/mL) [11] | 0
YT (IL-2 2.5 ng/mL) [10] | 0
[4] | 3.88
[6] | 3.2
[7] | 1.6
[8] | 3.83
[28] | 3.47
